# From paper PMC4595804, “A strategy to discover decoy chemokine ligands with an anti-inflammatory activity” (Scientific Reports, 2015)
# T1: CCL17 (Homo sapiens, UniProt Q92583)
# T1 construct: codes for the mature CCL17 or CCL22 with an N-terminal thioredoxin-hexahistidin (TRX- (His)6) tag; thioredoxin (TRX) (N, cleaved yes); (His)6 (N, cleaved yes); made in house; host or cells: E. coli BL21 (DE3)
# T1 sequence (Q92583 24-94): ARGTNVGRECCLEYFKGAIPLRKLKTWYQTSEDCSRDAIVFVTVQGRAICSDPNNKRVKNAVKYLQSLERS
# T2: CCR4 (Homo sapiens, UniProt P51679)
# T2 construct: signal peptide fused to EGFP (N); expressed in transfected cells; host or cells: HEK-293
# T2 sequence (P51679 1-360): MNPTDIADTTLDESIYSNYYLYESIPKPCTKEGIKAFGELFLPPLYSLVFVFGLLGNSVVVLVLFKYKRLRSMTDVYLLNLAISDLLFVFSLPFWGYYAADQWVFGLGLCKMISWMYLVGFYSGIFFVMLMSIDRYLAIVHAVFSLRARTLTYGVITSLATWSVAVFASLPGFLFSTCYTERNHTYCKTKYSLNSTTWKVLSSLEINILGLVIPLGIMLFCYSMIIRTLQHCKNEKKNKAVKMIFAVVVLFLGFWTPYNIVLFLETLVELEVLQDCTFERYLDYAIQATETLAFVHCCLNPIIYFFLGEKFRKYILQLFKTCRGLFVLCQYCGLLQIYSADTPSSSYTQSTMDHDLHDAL
# T3: CCL22 (Homo sapiens, UniProt O00626)
# T3 construct: codes for the mature CCL17 or CCL22 with an N-terminal thioredoxin-hexahistidin (TRX- (His)6) tag; thioredoxin (TRX) (N, cleaved yes); (His)6 (N, cleaved yes); made in house; host or cells: E. coli BL21 (DE3)
# T3 sequence (O00626 25-93): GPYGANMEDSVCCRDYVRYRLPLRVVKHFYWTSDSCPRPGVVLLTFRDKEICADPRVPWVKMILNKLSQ
# Legend:
# [1] = target: T1, CCL17; experiment: TRIC-r calcium assay, neutraligand protocol: compound preincubated with CCL17, EGFP-CCR4+Gqi5+ HEK cells; type: cell-based; conditions: neutraligand protocol, control compound
# Procedure: EGFP-CCR4^+Gqi5^+HEKcells were loaded with fluorescent Ca^2+-indicator Indo-1 AM (5μM, Interchim) for 45 min at 37 °C. […] Cells (100,000 cells/well, 100μl) were seeded in black clear bottom 96-well plates (Greiner), and centrifuged at 250 × g for 5 min.
# (§1) Two plates (96-well plates, Greiner) were prepared for the screen: one containing test compounds alone in order to determine their direct agonistic activity, and another one containing test compounds mixed with CCL17 or CCL22 at room temperature for 1 h (neutraligand protocol). The chemokines and test compounds were prepared at a 3× concentration, while digitonin was prepared at a 4× concentration. The CCR4 antagonist, C-021 served as control in the experiment. In the antagonist protocol, compounds were added to the cell plate (one compound per well) and incubated with cells for 30 min at room temperature, while the agonist (CCL17 or CCL22) was added to the ligand plate only.
# Dye loaded cells were placed in the FlexStation 3 (Molecular Devices). […] For the primary screening, the ligands (50μl of chemokine mixed with DMSO or test compounds) were added to the cells at 40 s, followed by digitonin addition (50μl) at 100 s to the cells. Molecules were screened at a final concentration of 2μg/ml with 5 nM CCL17 or CCL22. […] The calcium response values (height of peak response over baseline) were determined. Hits were selected by comparing the response amplitude at the time of the chemokine addition ± test compound. The Z’ factor[29] was calculated according to the following equation: Z’ = 1-(3SD+ + 3SD−)/|Ave+ − Ave−|, where SD+ and Ave+ are respectively the standard deviation and the mean value of the positive controls (chemokine + DMSO), while SD− and Ave− are respectively the standard deviation and the mean value of the negative controls (HEPES-BSA (0.1%) mixed with DMSO, or cells mixed with C-021). Hit molecules were confirmed by performing concentration-response curves and their half maximal inhibitory concentration (IC50) values were calculated using the Kaleidagraph software.
# [2] = target: T2, CCR4; experiment: TRIC-r calcium assay, antagonist protocol: compound preincubated with CCR4-expressing cells; type: cell-based; conditions: primary screen
# Procedure: as §1
# Dye loaded cells were placed in the FlexStation 3 (Molecular Devices). Calcium mobilization was measured at 401 and 475 nm emission fluorescence after excitation at 355 nm. For the primary screening, the ligands (50μl of chemokine mixed with DMSO or test compounds) were added to the cells at 40 s, followed by digitonin addition (50μl) at 100 s to the cells. […] Raw fluorescence data (at 401 and 475 nm) were exported and the ratio 401/475 was calculated. The calcium response values (height of peak response over baseline) were determined. […] Hit molecules were confirmed by performing concentration-response curves and their half maximal inhibitory concentration (IC50) values were calculated using the Kaleidagraph software.
# [3] = target: T1, CCL17; experiment: Tryptophan fluorescence assay on CCL17; type: binding; conditions: 0–25 μM compound
# Procedure: (§2) Fluorescence measurements were performed on a spectrofluorometer (JobinYvon/Spex) in a quartz microcuvette at 20 °C. CCL17 and CCL22 (1.5 μM in HEPES buffer without BSA) were excited at 285 nm and emission spectra were recorded (300–400 nm). […] The fluorescence emission spectra were corrected by subtracting the emission scan of the compounds alone and data analysis was carried out with fluorescence intensities detected at 340 nm.
# [4] = target: T3, CCL22; experiment: Tryptophan fluorescence assay on CCL22; type: binding; conditions: 0–25 μM compound
# Procedure: as §2, with “°C.” for “°C. CCL17 and CCL22 (1.5 μM in HEPES buffer without BSA) were excited at 285 nm and emission spectra were recorded (300–400 nm).”
# [5] = test system: CCR4+ HUT78 cells; experiment: HUT78 chemotaxis: compounds alone or preincubated with the cells (antagonist protocol); type: cell-based, human; conditions: receptor antagonist protocol, 1 μM, 3 nM CCL17 or CCL22
# Procedure: Cell migration was carried out in RPMI1640-BSA (0.1%) using Transwell 96-well plates (Corning Costar, 5 μm pore size, polycarbonate membranes). […] Lower wells contained the same medium diluted with DMSO or chemokine (3 nM CCL17 or CCL22).
# 0.1% BSA using Transwell 96-well plates (Corning Costar, 5µm pore size, polycarbonate […]
# the same medium diluted with DMSO or chemokine (3nM CCL17 or CCL22). In neutraligand inhibition studies, prior to their use, CCL17 (a) and CCL22 (b) were pre-incubated with […]
# in the lower compartment. For characterization of the antagonist properties, the compounds were pre-incubated with the cells in the upper compartment. C-021 (1µM, stripped bars), the CCR4 receptor antagonist, was used as a control in both incubation protocols. Results are expressed as the percentage of cells that migrated to the lower chamber. Data represent the means±SD. Experiments were performed in triplicate.
# (1 picture or pasted object on this page, not shown here)
# [6] = target: CXCR4 (Homo sapiens, UniProt P61073); conditions: EGFP-CXCR4+ HEK cells, 1 h preincubation
# Procedure: The identification of neutraligands relies on the measurement of kinetic-based calcium responses.
# Monitoring calcium responses in a time-resolved manner allows the discrimination of compounds binding to the chemokine from those binding to the receptor. This is achieved using a pre-incubation protocol in which the tested compounds are preincubated with the receptor or with the chemokine prior to calcium monitoring. […] These incubation protocols are named Time-Resolved Intracellular Calcium recordings (TRIC-r) allowing the identification of neutraligands versus receptor antagonists.
# [7] = target: T2, CCR4; experiment: Dose-response of chemokine-induced calcium responses in EGFP-CCR4+Gqi5+ HEK cells; type: cell-based; conditions: recombinant chemokine, + Gqi5, 21 °C
# Procedure: EGFP-CCR4^+Gqi5^+HEKcells were loaded with fluorescent Ca^2+-indicator Indo-1 AM (5μM, Interchim) for 45 min at 37 °C. The cells were detached in PBS-EDTA (5 mM) for 2 min, suspended in growth medium, pelleted by centrifugation at 320 × g for 5 min, and resuspended in HEPES-BSA buffer (137.5 mM NaCl, 6 mM KCl, 1.25 mM CaCl2, 1.25 mM MgCl2, 0.4 mM NaH2PO4, 5.6 mM glucose, 10 mM HEPES, BSA (0.1%, w/v), pH 7.4). Cells (100,000 cells/well, 100μl) were seeded in black clear bottom 96-well plates (Greiner), and centrifuged at 250 × g for 5 min.
# Dye loaded cells were placed in the FlexStation 3 (Molecular Devices). Calcium mobilization was measured at 401 and 475 nm emission fluorescence after excitation at 355 nm. […] Raw fluorescence data (at 401 and 475 nm) were exported and the ratio 401/475 was calculated. The calcium response values (height of peak response over baseline) were determined. […] The Z’ factor[29] was calculated according to the following equation: Z’ = 1-(3SD+ + 3SD−)/|Ave+ − Ave−|, where SD+ and Ave+ are respectively the standard deviation and the mean value of the positive controls (chemokine + DMSO), while SD− and Ave− are respectively the standard deviation and the mean value of the negative controls (HEPES-BSA (0.1%) mixed with DMSO, or cells mixed with C-021). […]
# [8] = target: T2, CCR4; experiment: EGFP-CCR4 receptor surface level / endocytosis on EGFP-CCR4+ HEK cells; type: cell-based; conditions: 100 nM chemokine, 30 min, EGFP-CCR4+ HEK cells
# Procedure: CCR4 levels were evaluated by flow cytometry (FACSCalibur, BD biosciences) using cell surface labeling of EGFP with monoclonal mouse anti-GFP (Roche Applied Science; 1:100 dilution) as primary antibody and R-phycoerythrin conjugated AffiniPure F (ab’)2 fragment goat anti-mouse (Immunotech; 1/100) as secondary antibody.
# Chain of CXCR4 (P61073 whole entry): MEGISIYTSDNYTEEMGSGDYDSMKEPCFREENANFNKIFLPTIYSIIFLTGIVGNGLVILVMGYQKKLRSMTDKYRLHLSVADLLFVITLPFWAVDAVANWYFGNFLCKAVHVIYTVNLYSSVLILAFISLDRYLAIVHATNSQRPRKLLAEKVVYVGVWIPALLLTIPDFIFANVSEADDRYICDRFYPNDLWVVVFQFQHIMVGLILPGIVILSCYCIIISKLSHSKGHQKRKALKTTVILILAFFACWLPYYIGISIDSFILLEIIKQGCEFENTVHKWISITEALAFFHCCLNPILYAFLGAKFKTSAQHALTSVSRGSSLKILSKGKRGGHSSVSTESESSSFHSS
molecule,measurement,setting,value
"COc1cc2nc(N3CCC(N4CCCCC4)CC3)nc(NC3CCCCCC3)c2cc1OC [C-021, reference compound]",effect on CCL17 calcium responses after preincubation with the chemokine,[1],not with the chemokine
same,effect on the response to CCL17 or CCL22 after preincubation with the receptor-expressing cells,[2],abolished responses
same,change in tryptophan fluorescence of CCL17,[3],No significant change
same,change in tryptophan fluorescence of CCL22,[4],No significant change
same,"inhibition of CCR4+ HUT78 T cell migration, compound preincubated with the cells",[5],90%
c1cc(CN2CCCNCCNCCCNCC2)ccc1CN1CCCNCCNCCCNCC1 [AMD3100],"amplitude of CXCL12 calcium responses, preincubation with the chemokine compared with preincubation with the receptor",[6],much greater
"CCL22: recombinant human chemokine (Macrophage-Derived Chemokine), CCR4 agonist, produced in E. coli (protein, left off: thioredoxin (TRX), N-terminal, cleaved | His6, N-terminal, cleaved, recombinant human chemokine (Macrophage-Derived Chemokine), CCR4 agonist, produced in E. coli) GPYGANMEDSVCCRDYVRYRLPLRVVKHFYWTSDSCPRPGVVLLTFRDKEICADPRVPWVKMILNKLSQ",EC50,[7],2.9 ± 0.5 nM
same,CCR4 internalization (receptor endocytosis) induced by the chemokine,[8],78.0 ± 3.0%
"CCL17: recombinant human chemokine (Thymus and Activation-Regulated Chemokine), CCR4 agonist, produced in E. coli (protein, left off: thioredoxin (TRX), N-terminal, cleaved | His6, N-terminal, cleaved) ARGTNVGRECCLEYFKGAIPLRKLKTWYQTSEDCSRDAIVFVTVQGRAICSDPNNKRVKNAVKYLQSLERS",EC50,[7],3.7 ± 0.4 nM
same,CCR4 internalization (receptor endocytosis) induced by the chemokine,[8],approximately 43.0 ± 3.0%
